Assay [1] relates to Rattus norvegicus. Nature of the assay: Antithrombotic activity in Wistar rat venous thrombosis model assessed as reduction in weight of vein thrombus at 100 to 500 IU/kg, sc administered 1 hr prior to induction of thrombosis measured after 30 mins. In kind it is functional, organism-based.
Assay [2] concerns the target T1, Coagulation factor X (Homo sapiens, UniProt P00742). Nature of the assay: Inhibition of factor 10a (unknown origin) using S-2765 as substrate assessed as compound potency preincubated with AT-3 followed by factor 10a addition for 60 secs and subsequent addition of substrate for 60 secs measured after 4 mins.
Assay [3] has as its target T1, Coagulation factor X. Nature of the assay: Inhibition of factor 10a (unknown origin) using S-2765 as substrate preincubated with AT-3 followed by factor 10a addition for 60 secs and subsequent addition of substrate for 60 secs measured after 4 mins.
Assay [4] concerns Rattus norvegicus. Nature of the assay: Antithrombotic activity in Wistar rat venous thrombosis model assessed as reduction in weight of vein thrombus at 300 IU/kg, sc administered 1 hr prior to induction of thrombosis measured after 30 mins. In kind it is functional, organism-based.

Each structure is given as a SMILES string. Calls of active or inactive are those of the source. The calls are words filed in the database; no cut-off is given here.

T1 sequence (P00742 41-179 limits assumed): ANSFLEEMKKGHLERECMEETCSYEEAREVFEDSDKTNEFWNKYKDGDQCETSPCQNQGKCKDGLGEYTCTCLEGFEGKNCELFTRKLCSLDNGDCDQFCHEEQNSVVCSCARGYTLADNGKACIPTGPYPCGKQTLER
T1 sequence (P00742 235-488 limits assumed): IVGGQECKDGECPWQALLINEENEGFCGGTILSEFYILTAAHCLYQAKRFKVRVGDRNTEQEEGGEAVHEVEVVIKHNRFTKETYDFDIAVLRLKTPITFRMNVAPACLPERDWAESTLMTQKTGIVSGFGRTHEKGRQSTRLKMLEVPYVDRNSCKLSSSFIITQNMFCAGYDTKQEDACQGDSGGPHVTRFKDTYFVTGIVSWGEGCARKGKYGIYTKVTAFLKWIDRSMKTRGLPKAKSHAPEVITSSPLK

The term IC50 denotes the concentration that gives 50% inhibition. Read a low IC50 as greater potency. `CO[C@H]1O[C@H](COS(=O)(=O)O)[C@@H](O[C@@H]2O[C@@H](C(=O)O)[C@@H](O[C@@H]3O[C@H](COS(=O)(=O)O)[C@@H](O[C@@H]4O[C@H](C(=O)O)[C@@H](O[C@H]5O[C@H](COS(=O)(=O)O)[C@@H](O)[C@H](O)[C@H]5NS(=O)(=O)O)[C@H](O)[C@H]4O)[C@H](OS(=O)(=O)O)[C@H]3NS(=O)(=O)O)[C@H](O)[C@H]2OS(=O)(=O)O)[C@H](O)[C@H]1N(C)S(=O)(=O)O`: in the assay with Rattus norvegicus [1], the result was Active. Further, the INH at Coagulation factor X [2] is 1140 IU/mg. The compound further gave an IC50 at Coagulation factor X [3] of 1.65 nM.

Turning to `CC.COC1O[C@H](COS(=O)(=O)O)[C@@H](O[C@@H]2O[C@@H](C(=O)O)[C@@H](O[C@@H]3O[C@H](COS(=O)(=O)O)[C@@H](O[C@@H]4O[C@H](C(=O)O)[C@@H](O[C@H]5O[C@H](COS(=O)(=O)O)[C@@H](O)[C@H](O)[C@H]5NS(=O)(=O)O)[C@H](O)[C@H]4O)[C@H](OS(=O)(=O)O)[C@H]3NS(=O)(=O)O)[C@H](O)[C@H]2OS(=O)(=O)O)[C@H](O)[C@H]1NS(=O)(=O)O` (single isomer, unassigned), the INH at Coagulation factor X [2] came out at 719 IU/mg. The compound further gave an IC50 on Coagulation factor X [3] of 3 nM.

For `CO[C@H]1O[C@H](COS(=O)(=O)O)[C@@H](O[C@@H]2O[C@@H](C(=O)O)[C@@H](O[C@@H]3O[C@H](COS(=O)(=O)O)[C@@H](O[C@@H]4O[C@H](C(=O)O)[C@@H](O[C@H]5O[C@H](COS(=O)(=O)O)[C@@H](O)[C@H](O)[C@H]5NS(=O)(=O)O)[C@H](O)[C@H]4O)[C@H](OS(=O)(=O)O)[C@H]3NS(=O)(=O)O)[C@H](O)[C@H]2OS(=O)(=O)O)[C@H](O)[C@H]1NS(=O)(=O)O`, the INH on Coagulation factor X [2] was found to be 1170 IU/mg. The result in the assay on Rattus norvegicus [4] was Active. Besides, the IC50 against Coagulation factor X [3] was 0.978 nM.

In the case of `CO[C@H]1O[C@H](COS(=O)(=O)O)[C@@H](O[C@@H]2O[C@@H](C(=O)O)[C@@H](O[C@@H]3O[C@H](COS(=O)(=O)O)[C@@H](O[C@@H]4O[C@H](C(=O)O)[C@@H](O[C@H]5O[C@H](COS(=O)(=O)O)[C@@H](O)[C@H](O)[C@H]5N)[C@H](O)[C@H]4O)[C@H](OS(=O)(=O)O)[C@H]3N)[C@H](O)[C@H]2OS(=O)(=O)O)[C@H](O)[C@H]1NS(=O)(=O)O`, the INH at Coagulation factor X [2] is 1.32 IU/mg. In addition, at Coagulation factor X [3], the IC50 is 967 nM.

For `CO[C@H]1O[C@H](COS(=O)(=O)O)[C@@H](O[C@@H]2O[C@@H](C(=O)O)[C@@H](O[C@@H]3O[C@H](COS(=O)(=O)O)[C@@H](O[C@@H]4O[C@H](C(=O)O)[C@@H](O[C@H]5O[C@H](COS(=O)(=O)O)[C@@H](O)[C@H](O)[C@H]5NC=O)[C@H](O)[C@H]4O)[C@H](OS(=O)(=O)O)[C@H]3NS(=O)(=O)O)[C@H](O)[C@H]2OS(=O)(=O)O)[C@H](O)[C@H]1NS(=O)(=O)O`, the INH on Coagulation factor X [2] was 1260 IU/mg. This compound also showed an IC50 against Coagulation factor X [3] of 1.14 nM.

Take `CO[C@H]1O[C@H](COS(=O)(=O)O)[C@@H](O[C@@H]2O[C@@H](C(=O)O)[C@@H](O[C@@H]3O[C@H](COS(=O)(=O)O)[C@@H](O[C@@H]4O[C@H](C(=O)O)[C@@H](O[C@H]5O[C@H](COS(=O)(=O)O)[C@@H](O)[C@H](O)[C@H]5NS(=O)(=O)O)[C@H](O)[C@H]4O)[C@H](OS(=O)(=O)O)[C@H]3NS(=O)(=O)O)[C@H](OS(=O)(=O)O)[C@H]2OS(=O)(=O)O)[C@H](O)[C@H]1NS(=O)(=O)O`: on Coagulation factor X [2], the INH was 185 IU/mg. At Coagulation factor X [3], this compound showed an IC50 of 9.25 nM.

Regarding `CO[C@H]1O[C@H](COS(=O)(=O)O)[C@@H](O[C@@H]2O[C@H]3C(=O)N[C@H]4[C@H](O[C@@H]3[C@H](O)[C@H]2OS(=O)(=O)O)O[C@H](COS(=O)(=O)O)[C@@H](O[C@@H]2O[C@H](C(=O)O)[C@@H](O[C@H]3O[C@H](COS(=O)(=O)O)[C@@H](O)[C@H](O)[C@H]3NS(=O)(=O)O)[C@H](O)[C@H]2O)[C@@H]4OS(=O)(=O)O)[C@H](O)[C@H]1NS(=O)(=O)O`, the INH on Coagulation factor X [2] was determined as 83.5 IU/mg. The compound also had an IC50 at Coagulation factor X [3] of 19.9 nM.

In the case of `CO[C@H]1O[C@H](COS(=O)(=O)O)[C@@H](O[C@@H]2O[C@@H](C(=O)O)[C@@H](O[C@@H]3O[C@H](COS(=O)(=O)O)[C@@H](O[C@@H]4O[C@H](C(=O)O)[C@@H](O[C@H]5O[C@H](COS(=O)(=O)O)[C@@H](O)[C@H](O)[C@H]5NS(=O)(=O)O)[C@H](O)[C@H]4O)[C@H](OS(=O)(=O)O)[C@H]3N)[C@H](O)[C@H]2OS(=O)(=O)O)[C@H](O)[C@H]1NS(=O)(=O)O`, the INH at Coagulation factor X [2] worked out at 2.15 IU/mg. In addition, half-maximal inhibition at Coagulation factor X [3] (IC50) was put at 494 nM.

Consider `CC.O=C(O)[C@H]1O[C@@H](O[C@H]2[C@H](OS(=O)(=O)O)[C@@H](NS(=O)(=O)O)[C@H](O[C@H]3[C@H](O)[C@@H](OS(=O)(=O)O)[C@H](O[C@@H]4[C@H](O)[C@@H](CO)O[C@@H]4CS(=O)(=O)O)O[C@H]3C(=O)O)O[C@@H]2COS(=O)(=O)O)[C@H](O)[C@@H](O)[C@@H]1O[C@H]1O[C@H](COS(=O)(=O)O)[C@@H](O)[C@H](O)[C@H]1NS(=O)(=O)O`, for which the IC50 against Coagulation factor X [3] is 20.7 nM.

(Values after ChEMBL document CHEMBL4000206, “An efficient anticoagulant candidate: Characterization, synthesis and in vivo study of a fondaparinux analogue Rrt1.17” (Eur J Med Chem, 2017).)
